Assay results taken from patent publication US5846934A, “Pure somatostatin antagonist and methods of use thereof” (American Cyanamid Company, priority 1997, dated 1998).
Positions of bridges follow the written chain, without caps; N, C: chain ends. Non-standard residues stand in square brackets, D forms with d. Residues, ends and D or L forms follow the SMILES beside them. Phe(4-NO2) = N[C@@H](Cc1ccc([N+](=O)[O-])cc1)C(=O)O; 2Nal = N[C@@H](Cc1ccc2ccccc2c1)C(=O)O

How the values were obtained:
[1] = target: T1, rat somatostatin receptor subtype 2 (SSTR2) (Rattus norvegicus, UniProt P30680); experiment: Yeast assay, somatostatin agonist activity (zone of growth of modified yeast cells); format: cell-based; parameters: key: 1 is minimum agonist activity; 5 is maximum agonist activity; --: When no activity is observed, the result is indicated by a dash; conditions: rating on a scale of 1-5 from zone of growth; S. cerevisiae LY364 expressing rat SSTR2
T1 construct: expressed in transfected cells; host or cells: Saccharomyces cerevisiae LY364 bearing pJH2 (SSTR2) and pLP82 (G protein)
T1 sequence (P30680 whole entry): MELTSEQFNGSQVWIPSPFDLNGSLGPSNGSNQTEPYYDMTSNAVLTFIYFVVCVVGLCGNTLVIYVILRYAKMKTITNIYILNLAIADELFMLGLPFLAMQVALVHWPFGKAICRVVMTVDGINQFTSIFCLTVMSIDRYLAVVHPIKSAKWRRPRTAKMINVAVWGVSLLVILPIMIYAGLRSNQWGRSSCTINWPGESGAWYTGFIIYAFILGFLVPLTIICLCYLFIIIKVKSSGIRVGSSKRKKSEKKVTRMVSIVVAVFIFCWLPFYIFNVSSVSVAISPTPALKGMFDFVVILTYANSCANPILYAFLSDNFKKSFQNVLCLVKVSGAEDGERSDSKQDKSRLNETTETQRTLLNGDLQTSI
Method: (§1) In this evaluation, yeast cells which have been specifically modified to functionally express rat somatostatin receptor subtype 2 (SSTR2) on their cell surfaces are used. S. Cerevisiae LY364 cells are plated in a standard synthetic agar medium which lacks histidine. In the absence of a somatostatin receptor agonist, the auxotrophic (his3) cells are unable to grow. In the presence of somatostatin, or a somatostatin agonist, the expression of an enzyme (His3p: imidazole-glycerol phosphate dehydratase) which is essential for histidine biosynthesis is induced. The cells become competent to produce histidine, resulting in a zone of growing cells around the applied test compound. The zone is measured and the test compound is given an agonist rating on a scale of 1-5 wherein 1 is minimum agonist activity and 5 is maximum agonist activity.
1) Inoculate 2 mL SCD-ura-trp liquid medium in Falcon 2051 tube with a single colony taken from a plate containing LY364 (MATa ura3-52 leu2 his3 trp1 lys2 ade2 far1:: LYS2 fus1:: FUS1-HIS3 gpa1::hisG sst2::.ADE2 bearing the SSTR2 expression plasmid, pJH2, and the G protein expression plasmid, pLP82) cells.
3) Add 1 mL of LY364 culture to 1 liter of agar medium.
8) Incubate plates at 30° C.
Day 5. Begin checking plates for growth around applied compounds.
(§2) Day 7. Growth in response to somatostatin should be readily observable. Rate extent of growth or inhibition of growth according to rating scale described hereinabove.

[2] = target: T1, rat somatostatin receptor subtype 2 (SSTR2); experiment: Yeast assay, somatostatin antagonist activity (zone of no growth in presence of S-14); format: cell-based; parameters: key: 1 is minimum antagonist activity; 5 is maximum antagonist activity; --: When no activity is observed, the result is indicated by a dash; conditions: rating on a scale of 1-5 from zone of no growth; 5 μL of 1 mg/mL S-14 added to each plate
Method: as §1
To evaluate the somatostatin antagonist activity of a test compound, the above procedure is followed except on day 3, 5 μL of 1 mg/mL of somatostatin, S-14, is added to each plate, before applying the test compound. If the test compound is an antagonist of somatostatin, then a zone of no growth will appear within the cell growth zone. This zone of no growth is measured and the test compound is given an antagonist rating on a scale of 1-5 wherein 1 is minimum antagonist activity and 5 is maximum antagonist activity.
The results are shown in Table I. When no activity is observed, the result is indicated by a dash.
On day 3, add 5 μL 1 mg/mL S-14 to each plate.
as §2

SSTR2 [3] = target: T2, SSTR2 (Rattus norvegicus, UniProt P30680); experiment: Cyclic AMP accumulation, forskalin stimulated, intact cells; format: cell-based; conditions: read-out: SSTR^2 % IA (% intrinsic activity)
T2 sequence (P30680 whole entry): as above
Source text: Cyclic AMP accumulation assays are used to determine the functional coupling of somatostatin receptors to effectors. All five cloned somatostatin receptors inhibit cyclic AMP accumulation and adenylyl cyclone activity.^1,2,3,4,5 This evaluation measures cyclic AMP accumulation from intact cells using the adrenal binding protein method. Signal transduction by somatostatin is mediated by lowering intracellular c-AMP levels. This functional assay measures the ability of the test compound to inhibit the effect of somatostatin on forskalin stimulated c-AMP levels.
Bovine adrenal gland extracts are prepared according to the method of Brown et al^6 with minor modifications. […]
Somatostatin-mediated inhibition of cyclic AMP accumulation is measured in intact cells co-incubated with the diterpene forskalin (5 μM) which activates adenylyl cyclase directly and stimulates cyclic AMP accumulation in cells. […] The cells are counted and the concentration of cells is adjusted to 50,000/70 μl and incubated 15 minutes at room temperature before starting the assay. […]

SSTR2 [4] = target: T2, SSTR2; experiment: Competitive binding, displacement of [125I]Tyr11 S-14; parameters: expressed in transfected cells; membrane protein
Method: In this evaluation the concentration of test compound required to displace 50% of somatostatin, SRIF, from the SRIF receptor subtypes expressed in mammalian cells is measured, i.e., the concentration required to inhibit 50% of [^125 I] Tyr^11 S-14 (Amersham) (IC50) from binding to the SRIF receptor subtypes.
Radiolabeled SRIF is mixed with pituitary cells, the test compound is added, the mixture is incubated and the radioactivity is measured as compared to control. Reduced radioactivity indicates successful competitive binding of the test compound to the pituitary cell receptor. The concentration of the test compound in nanomolar units required to displace 50% of SRIF from the pituitary cell receptor is calculated and reported in Table II as the IC50 value. Also calculated is the inhibitory constant, Ki.
Tyr^11 S-14 (150,000 cpm at 2000 Ci/mmole, 250 pM final concentration). The binding reaction is initiated by adding 2-60 μg of membrane protein in a 170 μL volume. Final reaction volume is 200 μl/well. All incubations are carried out at room temperature for 2 hours. Free radioligand is separated from bound ligand by rapid filtration through a glass fiber filter (IH-201-HA) using an Inotech cell harvester. The filter is then washed several times with cold (4° C.) binding buffer lacking BSA and protease inhibitors prior to counting in an LKB gamma master counter (78% efficiency). Whatman GFC filters presoaked in 0.3% polyethylenimine (to decrease background) are used.
The IC50 values and Ki values are calculated using the well-known methods described by Y. Cheng and W. H. Prusoff, Biochem. Pharmacol. 22, 3099-3108 (1973), incorporated herein by reference thereto.

| Yeast Assay Agonist [1] | Yeast Assay Antagonist [2] | Emax (SSTR2 [3]) [%] | Ki (SSTR2 [4]; calculated by method of Cheng and Prusoff, read-out: SSTR2 Binding Affinity Ki) [nM] | IC50 (SSTR2 [4]; displacement of [125I]Tyr11 S-14, 250 pM, room temperature, 2 hours, read-out: SSTR2 Binding Affinity IC50) [nM] | SMILES |
| --- | --- | --- | --- | --- | --- |
| -- | 5 | -12 |  |  | C[C@@H](O)[C@@H]1NC(=O)[C@H](CCCCN)NC(=O)[C@@H](Cc2c[nH]c3ccccc23)NC(=O)[C@H](Cc2ccc(O)cc2)NC(=O)[C@H](NC(=O)[C@@H](N)Cc2ccc(I)cc2)CSSC[C@@H](C(=O)N[C@@H](Cc2ccc(O)cc2)C(N)=O)NC1=O [4-IPhe Tyr Lys Thr Tyr] |
| -- | 3 | 7 |  |  | NCCCC[C@@H]1NC(=O)[C@@H](Cc2c[nH]c3ccccc23)NC(=O)[C@H](Cc2ccc(O)cc2)NC(=O)[C@H](NC(=O)[C@@H](N)Cc2ccc([N+](=O)[O-])cc2)CSSC[C@@H](C(=O)N[C@@H](Cc2ccc3ccccc3c2)C(N)=O)NC(=O)[C@H](CO)NC1=O [4-NO2 Phe Tyr Lys Ser Nal(2)] (H-[Phe(4-NO2)][dC]Y[dW]KSC[2Nal]-NH2; disulfide 2-7 (inferred); N-terminus and C-terminus assumed) |
| -- | 2 |  | 3.1 | 7 | CC(C)[C@@H]1NC(=O)[C@H](CCCCN)NC(=O)[C@@H](Cc2c[nH]c3ccccc23)NC(=O)[C@H](Cc2ccc(O)cc2)NC(=O)[C@H](NC(=O)[C@@H](N)Cc2ccc([N+](=O)[O-])cc2)CSSC[C@@H](C(=O)N[C@@H](Cc2ccc3ccccc3c2)C(N)=O)NC1=O [4-NO2 Phe Tyr Lys Val Nal(2)] (H-[Phe(4-NO2)][dC]Y[dW]KVC[2Nal]-NH2; disulfide 2-7 (inferred); N-terminus and C-terminus assumed) |
